Test results as given in patent US20120318750A1, “METHODS AND COMPOSITIONS FOR COMPLEX BINDING OF METAL IONS” (ChemseQ International AB, priority 2009, published 2012).

How the values were obtained:
[1] = Flotation of copper ions with sequestering agent in a flotation cell, metal analysis of foam; settings: 1 mg copper as copper sulphate, sequestering agent:metal 1.2:1, pH 5.5, flotation approx. 30 min
[2] = Flotation of manganese ions with sequestering agent in a flotation cell, metal analysis of foam; settings: 1 mg manganese as manganese sulphate, sequestering agent:metal 1.2:1, pH 5.5, flotation approx. 30 min
Excerpt: In order to investigate the separability of a sequestering agent according to the invention a small flotation cell was used. This flotation cell has a volume of approximately 1.6 l, a height of 315 mm and an inner diameter of 80 mm. Compressed air used to form the foam is led through a porous sintered glass filter of diameter 60 mm with a nominal porosity of 10-16 μm (“porosity 4”) mounted at the bottom of the flotation cell. At the top of the flotation cell a cylinder of an inner diameter of 30 mm and a height of 415 mm, with an outlet placed at 72 mm from the bottom, is mounted. The outlet is used to collect the foam and thereby the chelate according to the invention. At the top of the latter cylinder an adjustable valve is mounted to be able to better control the foaming and to direct the foam to the outlet.
was prepared from 2-aminoethanol, tert-butyl bromoacetate and tert-butyl 2-aminotetradecanoate as main ingredients using conventional techniques and was therafter mixed in 500 ml deionised water with 1 mg of manganese in the form of manganese sulphate (in a molar ratio of 1.2:1=sequestering agent: manganese sulphate) and a flotation agent (N,N-dimethyldodecylamine N-oxide, in a molar ratio of 10:1=flotation agent:sequestering agent).
The pH-value of the solution was adjusted to pH 5.5 with 0.1 M sodium hydroxide solution or 0.1 M hydrogen chloride solution. […]

[3] = Precipitation/recovery from a copper(II) sulfate solution by electrolysis, then acidification (Experimental Example 6); settings: electrolysis pH 12, 50 min, 300-350 mA
Description: The recovery of 2-dodecyl-3-carboxymethyl-3-azapentane diacid was performed in a two-step procedure.
(§1) In the first stage metal ions was removed from the solution by electrolysis at a specified pH and current intensity: The equipment to perform the electrolysis consisted of a Manson EP-601 rectifier and two platinum electrodes in form of a spring (anode) and a basket (cathode).
To a solution of 2-dodecyl-3-carboxymethyl-3-azapentane diacid and copper in the form of copper(II) sulfate (30 ml, in a molar ratio of 1.2:1=sequestering agent: copper(II) sulfate, [sequestrent]=10.5 mM, [Cu^2+]=655 ppm) in a beaker was sodium sulphate (corresponding to 50 mg/l) added, in order to receive wished current intensity. Solutions of 1 M aqueous sodium hydroxide was added to adjust the pH to 12. The total volume of the solution was 150 ml. The electrolysis was performed during 50 min. at a current intensity of 300-350 mA.
In the second step the electrolysis solution was acidified with 1 M aqueous hydrogen chloride to pH=2.4. The precipitated material was removed by filtration (glass filter—Schott u.Gen Mainz 1G2) and dried in a vacuum chamber at 0.8 mbar for 24 hours.
(§2) 99.6 mg precipitate was obtained. Organic analyses were made with the aid of an ESI-MS (recorded on a Micromass Quattro II mass spectrometer coupled with a Harvard Apparatus Pump 11 syringe pump directly into the ESI source of the mass spectrometer at a flow rate of 6 μl/min. The data was processed using MassLynx 4.0 software) in positive and negative mode, and NMR with a Varian 500 instrument. The precipitate contained exclusively of 2-dodecyl-3-carboxymethyl-3-azapentane diacid.
Metal analyses were made with the aid of a Perkin-Elmer AA300 atomic absorption spectrometer.

[4] = Solubility of sequestering agent in a copper(II) chloride solution on stepwise acidification; type: physicochemical; settings: 5.66 mM sequestrent, 300 ppm copper, room temperature
Description: A stock solution of 4-dodecyl-3,6,9-tri(carboxymethyl)-3,6,9-triazaundecane diacid and copper in the form of copper(II) chloride (20 ml, in a molar ratio of 1.2:1=sequestering agent: copper(II) chloride, [Cu^2+]=900 ppm, pH=4.5) was diluted with milliQ-water to a total volume of 60 ml in a beaker, corresponding to a solution with an initial sequestrent and copper concentration of 5.66 mM and 300 ppm, respectively. To this solution 2 M aqueous hydrogen chloride was added stepwise, under magnetical stirring at room temperature, to follow the solubility behavior of 4-dodecyl-3,6,9-tri(carboxymethyl)-3,6,9-triazaundecane diacid.

[5] = Precipitation/recovery from a copper(II) chloride solution by electrolysis with cation exchange membrane, then acidification (Experimental Example 7); settings: electrolysis starting pH 4.1, 60 min, 250-300 mA
Description: The recovery of 4-dodecyl-3,6,9-tri(carboxymethyl)-3,6,9-triazaundecane diacid was performed in a two-step procedure.
as §1, with “intensity.” for “intensity:”, “EP-60.1” for “EP-601”, “(cathode). The electrodes were separated with a cationic exchange membrane (CMI-7000 Cation exchange membranes—Membranes International INC.)” for “(cathode).”
To a solution of 4-dodecyl-3,6,9-tri(carboxymethyl)-3,6,9-triazaundecane diacid and copper in the form of copper(II) chloride (30 ml, in a molar ratio of 1.2:1=sequestering agent: copper(II) chloride, [Cu^2+]=900 ppm, pH=4.5) in a beaker was sodium sulphate (corresponding to 0.1 M), in order to receive wished current intensity. The pH of the starting solution was 4.1. The total volume of the solution was 300 ml. The electrolysis was performed during 60 min. at a current intensity of 250-300 mA.
In the second step the electrolysis solution was acidified with 1 M aqueous hydrogen chloride to pH=2.4. The precipitated material was removed by filtration (glass filter—Schott u.Gen Mainz 1G2) and dried in a vacuum chamber at 0.8 mbar for 22 hours.
as §2, with “198.7” for “99.6”, “μL/min.” for “μl/min.”, “4-dodecyl-3,6,9-tri(carboxymethyl)-3,6,9-triazaundecane” for “2-dodecyl-3-carboxymethyl-3-azapentane”, “diacid. Metal analyses were made with the aid of a Perkin-Elmer AA300 atomic absorption spectrometer.” for “diacid.”

[6] = Precipitation/recovery of sequestering agent from a copper(II) chloride solution by acidification to pH 1.8; settings: acidified to pH=1.8, 5.66 mM sequestrent, 300 ppm copper
Description: A stock solution of 4-dodecyl-3,6,9-tri(carboxymethyl)-3,6,9-triazaundecane diacid and copper in the form of copper(II) chloride (20 ml, in a molar ratio of 1.2:1=sequestering agent: copper(II) chloride, [Cu^2+]=900 ppm, pH=4.5) was diluted with milliQ-water to a total volume of 60 ml in a beaker, corresponding to a solution with an initial sequestrent- and copper concentration of 5.66 mM and 300 ppm, respectively. To this solution 2 M aqueous hydrogen chloride was added under magnetical stirring at room temperature to pH=1.8. A light blue precipitate was removed by filtration (P3 glass filter) leaving a colourless transparent filtrate. The light blue precipitate was dried in a vacuum chamber at 0.8 mbar for 19 hours resulting in a light blue solid.
as §2, with “270” for “99.6”, “mode.” for “mode, and NMR with a Varian 500 instrument. The precipitate contained exclusively of 2-dodecyl-3-carboxymethyl-3-azapentane diacid.”
The precipitate contained exclusively of 4-dodecyl-3,6,9-tri(carboxymethyl)-3,6,9-triazaundecane diacid and complexed sequestering agent. […] Metal analyses were made with the aid of a Perkin-Elmer AA300 atomic absorption spectrometer. […]

Row | SMILES | added copper found in the foam [1] | added manganese found in the foam [2] | copper found on the cathode [3] | copper found in the filtrate ([3]; then acidified to pH=2.4) | copper found in the precipitate ([3]; then acidified to pH=2.4) | solubility observation ([4]; pH<0.5) | solubility observation ([4]; pH=2.8-0.5) | solubility observation ([4]; pH=4.5-2.8) | copper found on the cathode [5] | copper found in the filtrate ([5]; then acidified to pH=2.4) | copper found in the precipitate ([5]; then acidified to pH=2.4) | copper found in the filtrate [6] | copper found in the precipitate [6]
1 | CCCCCCCCCCCCC(C(=O)O)N(CCN(CC(=O)O)CC(=O)O)CC(=O)O (stereo not drawn) [2-dodecyl-3,6-di(carboxymethyl)-3,6-diazaoctane diacid] | ~65% | About 35% |  |  |  |  |  |  |  |  |  |  | 
2 | CCCCCCCCCCCCC(C(=O)O)N(CC(=O)O)CC(=O)O (stereo not drawn) [2-dodecyl-3-carboxymethyl-3-azapentane diacid] | ~70% | About 10% | 99.4% | 0.1% | 0.5% |  |  |  |  |  |  |  | 
3 | CCCCCCCCCCCCC(CN(CCN(CC(=O)O)CC(=O)O)CC(=O)O)N(CC(=O)O)CC(=O)O (stereo not drawn) [4-dodecyl-3,6,9-tri(carboxymethyl)-3,6,9-triazaundecane diacid] |  |  |  |  |  | A clear blue aqueous solution | Precipitated material is observed | A clear blue aqueous solution | 99.8% | 0.1% | 0.1% | 1% | 99%
